Assay results: US20160145242A1, “PHENYLIMIDAZOLE DERIVATIVE, AND THERAPEUTIC MEDICINE OR PREVENTIVE MEDICINE FOR INFLAMMATORY DISEASE, ETC” (NIPPON SODA CO., LTD., priority 2013, published 2016)

Key:
[1] = biological target: T1, guinea pig lung-derived leukotriene A4 hydrolase (Cavia porcellus, UniProt P19602); test: Leukotriene A4 hydrolase activity inhibitory action; type: biochemical; settings: read-out: leukotriene A4 hydrolase activity inhibition rate
T1 construct: guinea pig lung-derived leukotriene A4 hydrolase; from tissue; host or cells: Dunkin-Hartley guinea pig lung
T1 sequence (P19602 1-611): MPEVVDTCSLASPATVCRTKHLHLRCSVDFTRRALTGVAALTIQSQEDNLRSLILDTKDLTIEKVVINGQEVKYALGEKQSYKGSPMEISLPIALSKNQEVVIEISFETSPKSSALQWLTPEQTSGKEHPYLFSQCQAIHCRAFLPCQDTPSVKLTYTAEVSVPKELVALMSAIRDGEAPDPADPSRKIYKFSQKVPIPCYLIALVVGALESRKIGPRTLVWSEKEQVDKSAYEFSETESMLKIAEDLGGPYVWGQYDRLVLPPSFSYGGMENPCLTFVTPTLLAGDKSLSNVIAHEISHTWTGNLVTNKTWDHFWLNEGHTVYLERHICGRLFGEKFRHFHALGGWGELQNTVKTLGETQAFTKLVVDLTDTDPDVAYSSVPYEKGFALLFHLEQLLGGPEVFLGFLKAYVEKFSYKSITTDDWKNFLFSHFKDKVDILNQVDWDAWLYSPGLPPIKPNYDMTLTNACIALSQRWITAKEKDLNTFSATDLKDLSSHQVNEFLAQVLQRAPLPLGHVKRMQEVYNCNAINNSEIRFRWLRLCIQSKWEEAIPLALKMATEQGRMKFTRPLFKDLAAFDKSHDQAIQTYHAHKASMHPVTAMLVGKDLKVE
Method: The inhibitory action of the compound according to the present invention with respect to the activity of the present enzyme was examined using guinea pig lung-derived leukotriene A4 hydrolase.
Dunkin-Hartley guinea pig lung-derived leukotriene A4 hydrolase was reacted with […] of leukotriene A4 and the amount of leukotriene B4 which was a reaction product was measured by an enzyme-linked immunosorbent assay. 3 μM of the compound of the present invention dissolved in dimethyl sulfoxide was added to the reaction system and the inhibition rate of leukotriene B4 generation (leukotriene A4 hydrolase activity inhibition rate) was measured.

[2] = test system: guinea pig liver microsome-derived lipid peroxidase; test: Lipid peroxidase activity inhibitory action; type: biochemical; settings: 3 μM
Method: The inhibitory action of the compound according to the present invention with respect to the activity of the present enzyme was examined using guinea pig liver microsome-derived lipid peroxidase.
Dunkin-Hartley guinea pig lung-derived lipid peroxidase was reacted with 0.25 M of polyvalent unsaturated fatty acids and the amount of malondialdehyde which was a reaction product was measured by an absorbance determination method. 3 μM of the compound according to the present invention dissolved in dimethyl sulfoxide was added to the reaction system and the inhibition rate of malondialdehyde generation (lipid peroxidase activity inhibition rate) was measured.

SMILES: CC(=O)N1CCN(c2ccc(N)c(-n3ccnc3)c2)CC1 [Compound 1-1, 4-acetyl-1-(4-amino-3-imidazole-1-yl-phenyl)piperazine]
- inhibition at 3 µM [1]: 14%
- lipid peroxidase activity inhibition rate [2]: 13%
